Reference: article PMC10002963, “[4+2]-Cycloaddition to 5-Methylidene-Hydantoins and 5-Methylidene-2-Thiohydantoins in the Synthesis of Spiro-2-Chalcogenimidazolones” (International Journal of Molecular Sciences, 2023)
In brackets after ≈: the same amount, converted by molar mass. Like-named read-outs stand apart in the source and are kept apart here.

How the values were obtained:
MCF7 cell line = test: MTT cytotoxicity assay, MCF7; format: cell-based, human; conditions: MCF7, 65-h treatment, MTT, Cmax 100 µM
Experimental: (§1) Some of the obtained spiro-derivatives were tested for cytotoxicity using the standard MTT assay. Cytotoxicity was evaluated using the cell lines of various etiologies: breast cancer MCF7, human lung carcinoma A549, non-cancer human embryonic kidney cell line HEK293T, and non-cancer lung fibroblast VA13 cell line. Lung cancers and breast cancers are among the most common causes of tumor lesions and related death in the world, and non-cancerous cells were applied for the specificity of action evaluation. The results are shown in Table 5; the dose-response dependency graphs are available in Supplementary Information.
(§2) Cell cultures. Human embryonic kidney HEK293T cell line was kindly provided by Dr. E. Knyazhanskaya; immortalized human fibroblasts cell line VA13 was kindly provided by Dr. M. Rubtsova; human breast cancer cell line MCF7 and human lung adenocarcinoma cell line A549 were kindly provided by Dr. S. Dmitriev. MCF7, VA13, A549, and HEK293T cell lines were maintained in DMEM/F-12 (Thermo Fisher Scientific, Waltham, Massachusetts, USA) culture medium containing 10% fetal bovine serum (Thermo Fisher Scientific, Waltham, Massachusetts, USA) and 50 µg/mL penicillin and 0.05 mg/mL streptomycin at 37°C (Thermo Fisher Scientific, Waltham, Massachusetts, USA) in 5% CO2. Cells were maintained at 37°C in a humidified incubator MCO-18AC (Sanyo, Japan) supplied with 5% CO2. Cell cultures were tested for the absence of mycoplasma.
(§3) In Vitro Survival Assay (MTT Assay). The cytotoxicity was tested using the MTT (3-(4,5-dimethylthiazol-2-yl)2,5-diphenyl tetrazolium bromide) assay with some modifications. A total of 2500 cells per well for the MCF7, HEK293T cell lines, 3000 cells for the A549 cell line, or 4000 cells per well for the VA-13 cell line were plated out in 135 µL of DMEM-F12 media (Gibco, USA) in a 96-well plate and then incubated in the 5% CO2 incubator for first 20 h without treating. After this, 15 µL of media-DMSO solutions of tested substances were added to the cells (final DMSO concentrations in the media were 0,5% or less) and treated for65 h with 45 nM–100 µM (eight dilutions) of our substances (triplicate each) and doxorubicin as a control substance. Then the MTT reagent (Paneco LLC, Moscow, Russia) was added to cells up to the final concentration of 0.5 g/L (10 × stock solution in PBS was used), and cells were incubated for 2 h at 37 °C under an atmosphere of 5% CO2. Then the MTT solution was discarded, and 140 µL of DMSO (PharmaMed LLC, Russia) was added. The plates were swayed on a shaker (200 rpm) to dissolve the formazan. The absorbance was measured using a microplate reader (VICTOR ×5 Light Plate Reader, PerkinElmer, USA) at a wavelength of 555 nm (in order to measure formazan concentration). The results were used to construct dose-response graphs and to estimate IC50absvalues (IC50abs is the concentration resulting in a two-fold decrease in the number of cells in comparison with the untreated cells) and, in some cases, IC50 values (IC50 is the concentration resulting in half of the maximal cytotoxic effect) with GraphPadSoftware, Inc., San Diego, CA, USA.

VA13 cell line = test: MTT cytotoxicity assay, VA13; format: cell-based, human; conditions: VA13, 65-h treatment, MTT, Cmax 100 µM
Experimental: as §1, §2, §3

A549 cell line = test: MTT cytotoxicity assay, A549; format: cell-based, human; conditions: A549, 65-h treatment, MTT, Cmax 100 µM
Experimental: as §1, §2, §3

E. coli K-12 (WT) = test: Minimal inhibitory concentration, E. coli K-12; format: cell-based, Escherichia coli; conditions: LB medium, overnight 37°C, >1000 = inactive in this test
Experimental: (§4) Then the minimal inhibitory concentration (MIC) was measured for E. coli BW25113 DTC and E. coli K-12 (WT) for the 12 most bacteriotoxic compounds from the plate test.
(§5) Determination of Minimal Inhibitory Concentration (MIC). MIC values were determined by monitoring growth in 96-well plates of E. coli cultures exposed to serial dilutions of compounds. Specifically, overnight E. coli BW25113 DTC and K12 cultures were diluted in 96-well plates to an OD590 of 0.01 in LB medium. The wells were then supplemented with the solution of each tested compound at concentrations of 1 mM, 500 µM, 250 µM, 125 µM, 62.5 µM, 31.25 µM, 15.63 µM, 7.81 µM, 3.91 µM, and 1.95 µM. Then the plates were incubated with shaking (200 r.p.m.) overnight at 37°C, and cell growth was assessed by scanning OD590 each well with a VictorX5 reader.

E. coli BW25113 DTC = test: Minimal inhibitory concentration, E. coli BW25113 DTC; format: cell-based, Escherichia coli
Experimental: as §4, §5

HEK293T cell line = test: MTT cytotoxicity assay, HEK293T; format: cell-based, human; conditions: 65-h treatment, Cmax 100 µM, read-out: IC50abs
Experimental: as §1, §2, §3

[1] = E. coli BW25113 DTC, LB medium, overnight 37°C, >1000 = inactive in this test
[2] = Homo sapiens, marked **, read-out: IC50abs, calculated by data extrapolation, exceeds Cmax
[3] = Homo sapiens, VA-13, read-out: IC50abs
[4] = Homo sapiens, read-out: IC50abs

Row | Structure (SMILES) | IC50 (MCF7 cell line; read-out: IC50abs) [µM] | IC50 (VA13 cell line; read-out: IC50abs) [µM] | IC50 (A549 cell line; read-out: IC50abs) [µM] | IC50 (VA13 cell line; [3]) [µM] | IC50 (A549 cell line; [4]) [µM] | IC50 (HEK293T cell line; Homo sapiens, HEK-293T) [µM] | IC50 (MCF7 cell line; [4]) [µM] | MIC (E. coli K-12 (WT); Escherichia coli) [µM] | MIC (E. coli BW25113 DTC; Escherichia coli, BW25113) [µM] | other results
1 | COc1ccc(N2C(=O)C3(CC4C=CC3C4)NC2=S)cc1 (stereo not shown) [Compound 39b] | > 100 | > 100 | > 100 | – | – | – | – | – | – | –
2 | O=C1NC2(C(=O)N1c1ccccc1)C1C=CC(C1)C2Br (stereo not shown) [Compound 40a] | > 100 | > 100 | > 100 | – | – | – | – | – | – | MIC (E. coli K-12 (WT)): >1000 µM; MIC (E. coli BW25113 DTC; [1]): 1000 µM (≈ 333 µg/mL); IC50 (HEK293T cell line): 56.4 ± 2.5 µM
3 | O=C1NC2(C(=O)N1c1ccccc1)C1C=CC(C1)C2I (stereo not shown) [Compound 41a] | > 100 | > 100 | > 100 | – | – | – | – | – | – | MIC (E. coli K-12 (WT)): >1000 µM; MIC (E. coli BW25113 DTC; [1]): 1000 µM (≈ 380 µg/mL); IC50 (HEK293T cell line): 69.1 ± 4.8 µM
4 | O=C1N(c2ccccc2)C(=S)NC12CC1C=CC2CC1 (stereo not shown) [Compound 45a] | – | – | – | > 100 | 85.2 ± 10.1 | 21.3 ± 2.3 | – | – | – | IC50 (MCF7 cell line; [2]): > 100 µM
5 | Cc1cccc(C)c1N1C(=O)C2(CC3C=CC2CC3)NC1=S (stereo not shown) [Compound 51a] | – | – | – | > 100 | > 100 | > 100 | > 100 | > 1000 | > 1000 | –
6 | COc1cccc(N2C(=O)C3(CCC(C)=C(C)C3)NC2=S)c1 (stereo not shown) [Compound 57] | – | – | – | 80.8 ± 13.7 | 35.4 ± 4.8 | 18.3 ± 1.7 | 50.6 ± 5.2 | – | – | –
7 | CC1=C(C)CC2(CC1)NC(=S)N(c1ccc(Cl)cc1)C2=O (stereo not shown) [Compound 59] | 76.6 ± 16 | 52.6 ± 7.8 | 26.2 ± 3.9 | – | – | – | – | – | – | IC50 (HEK293T cell line): 4.4 ± 0.6 µM
8 | CC1=C(C)CC2(CC1)NC(=S)N(c1ccc(F)c(Cl)c1)C2=O (stereo not shown) [Compound 62] | – | – | – | 9.8 ± 0.4 | 7.9 ± 0.4 | 6.8 ± 0.3 | 11.1 ± 0.6 | > 1000 | 1000 (≈ 339 µg/mL) | –
9 | CSC1=NC2(CC3C=CC2C3)C(=O)N1c1ccccc1 (stereo not shown) [Compound 72] | – | – | – | > 100 | > 100 | 60.1 ± 3.4 | > 100 | > 1000 | 500 (≈ 142 µg/mL) | –
10 | O=C1N[C@@]2(C[C@@H]3C=C[C@H]2C3)C(=O)N1c1ccccc1Cl [Compound 75] | – | – | – | > 100 | > 100 | 99 ± 11.1 | > 100 | > 1000 | 500 (≈ 144 µg/mL) | –
11 | Cc1cccc(N2C(=O)N[C@@]3(C[C@@H]4C=C[C@H]3C4)C2=O)c1 [Compound 76] | – | – | – | – | – | 48.6 ± 2.4 | 86.4 ± 7.3 | > 1000 | 125 (≈ 33.5 µg/mL) | IC50 (VA13 cell line; Homo sapiens, VA-13, marked **, read-out: IC50abs, calculated by data extrapolation, exceeds Cmax): > 100 µM; IC50 (A549 cell line; [2]): > 100 µM
12 | COc1cccc(N2C(=O)NC3(CCC(C)=C(C)C3)C2=O)c1 (stereo not shown) [Compound 77] | – | – | – | – | – | – | – | – | 125 (≈ 37.5 µg/mL) | –
